Structures can show the parent of a compound that is named as a salt.
Assays:
[1] = target: FTO (Homo sapiens, UniProt Q9C0B1); assay: FTO LC-MS assay
Procedure: (§1) Inhibition assays for PHD2 (AlphaScreen) [9], the KDMs (AlphaScreen) [17], BBOX [18] and FTO [19] were carried out as previously described. N-Terminally biotinylated 19-residue human HIF1α CODD peptide ([sequence]) used in the PHD2 inhibition assays was from GL Biochem (Shanghai). IC50 values were calculated using nonlinear regression with normalized dose-response fit using GraphPad Prism 5.

[2] = target: T1, BBOX1 (Homo sapiens, UniProt O75936); assay: BBOX fluoride-release / detection based fluorescence assay
T1 sequence (O75936 1-387): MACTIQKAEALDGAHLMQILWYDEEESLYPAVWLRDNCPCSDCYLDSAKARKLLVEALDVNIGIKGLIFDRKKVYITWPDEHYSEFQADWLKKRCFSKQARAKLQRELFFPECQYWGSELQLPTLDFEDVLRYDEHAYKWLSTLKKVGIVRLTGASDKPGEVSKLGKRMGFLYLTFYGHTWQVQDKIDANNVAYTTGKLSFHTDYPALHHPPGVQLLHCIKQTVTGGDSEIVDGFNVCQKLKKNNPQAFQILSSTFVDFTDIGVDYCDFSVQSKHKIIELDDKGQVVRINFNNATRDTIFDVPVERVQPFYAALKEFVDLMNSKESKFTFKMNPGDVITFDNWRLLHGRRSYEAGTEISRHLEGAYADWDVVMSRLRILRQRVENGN
Procedure: as §1

[3] = target: PHD2 (Homo sapiens, UniProt Q9GZT9); assay: PHD2 antibody-based (AlphaScreen) in vitro hydroxylation assay
Chain of PHD2 (Q9GZT9 whole entry): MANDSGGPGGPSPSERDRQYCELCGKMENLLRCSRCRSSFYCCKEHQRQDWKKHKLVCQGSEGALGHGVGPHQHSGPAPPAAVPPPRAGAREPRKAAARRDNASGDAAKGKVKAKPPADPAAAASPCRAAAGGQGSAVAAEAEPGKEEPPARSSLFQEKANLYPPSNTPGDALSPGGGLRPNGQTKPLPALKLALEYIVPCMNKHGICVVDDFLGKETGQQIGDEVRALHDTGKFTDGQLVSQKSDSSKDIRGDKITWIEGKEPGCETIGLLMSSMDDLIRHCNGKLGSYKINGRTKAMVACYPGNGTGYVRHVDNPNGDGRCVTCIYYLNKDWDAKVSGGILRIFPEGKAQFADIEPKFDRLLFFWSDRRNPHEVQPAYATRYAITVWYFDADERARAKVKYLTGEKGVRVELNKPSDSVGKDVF
Procedure: as §1

[4] = target: T2, JMJD2A (KDM4A) (Homo sapiens, UniProt O75164); assay: KDM AlphaScreen assay, JMJD2A
T2 sequence (O75164 1-1064): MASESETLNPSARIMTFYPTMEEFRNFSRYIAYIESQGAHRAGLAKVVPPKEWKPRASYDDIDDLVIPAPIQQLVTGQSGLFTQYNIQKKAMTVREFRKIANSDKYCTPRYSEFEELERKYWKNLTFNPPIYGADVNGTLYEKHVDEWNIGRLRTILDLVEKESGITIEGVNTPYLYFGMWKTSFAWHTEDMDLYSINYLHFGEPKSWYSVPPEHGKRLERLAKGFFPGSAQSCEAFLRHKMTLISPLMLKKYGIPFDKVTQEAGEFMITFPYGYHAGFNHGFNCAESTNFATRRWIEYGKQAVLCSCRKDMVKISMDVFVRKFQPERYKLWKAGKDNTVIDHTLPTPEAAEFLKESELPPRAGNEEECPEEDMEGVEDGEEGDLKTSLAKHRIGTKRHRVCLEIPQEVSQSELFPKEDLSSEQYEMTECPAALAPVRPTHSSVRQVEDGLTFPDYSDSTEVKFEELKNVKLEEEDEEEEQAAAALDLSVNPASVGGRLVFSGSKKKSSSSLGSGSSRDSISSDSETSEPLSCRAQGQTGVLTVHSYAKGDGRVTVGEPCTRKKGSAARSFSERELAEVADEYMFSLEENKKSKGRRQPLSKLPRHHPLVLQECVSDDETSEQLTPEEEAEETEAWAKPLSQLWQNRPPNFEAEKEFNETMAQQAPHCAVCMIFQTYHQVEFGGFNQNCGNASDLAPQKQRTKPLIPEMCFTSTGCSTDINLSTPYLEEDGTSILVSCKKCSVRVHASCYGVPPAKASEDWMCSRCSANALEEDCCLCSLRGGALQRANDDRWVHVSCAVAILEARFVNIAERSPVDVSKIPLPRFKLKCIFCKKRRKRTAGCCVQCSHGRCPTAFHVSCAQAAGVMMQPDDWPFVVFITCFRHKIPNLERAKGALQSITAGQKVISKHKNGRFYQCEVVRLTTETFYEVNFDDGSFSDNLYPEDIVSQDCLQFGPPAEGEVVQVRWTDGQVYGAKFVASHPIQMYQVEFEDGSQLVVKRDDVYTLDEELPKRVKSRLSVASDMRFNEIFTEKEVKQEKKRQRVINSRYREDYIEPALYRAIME
Procedure: as §1

[5] = target: T3, JMJD2C (KDM4C) (Homo sapiens, UniProt Q9H3R0); assay: KDM AlphaScreen assay, JMJD2C
T3 sequence (Q9H3R0 1-1056): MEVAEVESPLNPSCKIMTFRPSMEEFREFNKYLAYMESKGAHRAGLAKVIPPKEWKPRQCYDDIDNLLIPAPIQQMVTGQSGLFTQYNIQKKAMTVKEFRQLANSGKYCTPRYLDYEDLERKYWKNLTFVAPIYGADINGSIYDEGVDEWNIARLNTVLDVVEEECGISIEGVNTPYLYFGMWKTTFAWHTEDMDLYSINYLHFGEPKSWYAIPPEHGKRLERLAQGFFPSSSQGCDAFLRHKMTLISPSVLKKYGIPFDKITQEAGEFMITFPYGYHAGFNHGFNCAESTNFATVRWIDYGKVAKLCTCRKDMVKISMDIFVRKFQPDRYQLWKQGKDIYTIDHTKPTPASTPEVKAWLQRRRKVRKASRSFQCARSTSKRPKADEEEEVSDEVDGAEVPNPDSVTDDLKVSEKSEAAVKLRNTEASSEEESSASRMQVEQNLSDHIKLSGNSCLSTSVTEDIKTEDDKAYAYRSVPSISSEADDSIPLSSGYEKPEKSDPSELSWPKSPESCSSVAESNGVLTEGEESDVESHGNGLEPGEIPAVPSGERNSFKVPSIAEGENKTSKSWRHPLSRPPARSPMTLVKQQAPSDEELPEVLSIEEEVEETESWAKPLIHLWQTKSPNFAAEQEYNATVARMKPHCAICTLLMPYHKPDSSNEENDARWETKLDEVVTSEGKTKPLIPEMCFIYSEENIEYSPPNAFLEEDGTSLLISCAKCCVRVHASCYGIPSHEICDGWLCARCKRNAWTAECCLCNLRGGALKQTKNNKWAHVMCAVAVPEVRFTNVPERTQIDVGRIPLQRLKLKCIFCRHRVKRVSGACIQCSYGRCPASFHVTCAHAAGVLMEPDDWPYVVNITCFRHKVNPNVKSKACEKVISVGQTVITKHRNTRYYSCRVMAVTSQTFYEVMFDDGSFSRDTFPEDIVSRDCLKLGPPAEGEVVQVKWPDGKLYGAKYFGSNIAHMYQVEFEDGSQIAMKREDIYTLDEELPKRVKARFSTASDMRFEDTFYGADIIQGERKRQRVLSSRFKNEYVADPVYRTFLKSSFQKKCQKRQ
Procedure: as §1

Chain of FTO (Q9C0B1 whole entry): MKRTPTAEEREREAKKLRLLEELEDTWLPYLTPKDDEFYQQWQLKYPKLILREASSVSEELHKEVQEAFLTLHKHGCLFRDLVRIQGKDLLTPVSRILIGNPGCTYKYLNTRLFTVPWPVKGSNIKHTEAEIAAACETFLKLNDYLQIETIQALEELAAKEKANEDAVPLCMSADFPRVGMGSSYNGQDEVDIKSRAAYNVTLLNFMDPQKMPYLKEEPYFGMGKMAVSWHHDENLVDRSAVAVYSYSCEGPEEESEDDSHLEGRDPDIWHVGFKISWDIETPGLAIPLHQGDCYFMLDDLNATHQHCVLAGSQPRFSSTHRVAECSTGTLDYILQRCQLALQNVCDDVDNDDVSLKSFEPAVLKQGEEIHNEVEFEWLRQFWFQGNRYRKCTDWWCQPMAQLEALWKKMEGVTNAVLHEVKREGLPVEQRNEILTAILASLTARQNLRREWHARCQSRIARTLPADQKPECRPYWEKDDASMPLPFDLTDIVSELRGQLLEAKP

Row | Structure (SMILES) | IC50 [1] [µM] | IC50 [2] [µM] | selectivity for PHD2 over all other tested enzymes ([3]; from IC50 values of the 2OG oxygenase panel (Table 1)) | IC50 [4] [µM] | IC50 [5] [µM] | IC50 [3] [µM]
1 | O=C(O)CNC(=O)c1c(O)c2ccccc2n(Cc2ccccc2)c1=O [IOX2] | 11 | 9.5 | approximately 400 fold | – | – | –
2 | CC(C)(C)OC(=O)c1ccc(-n2[nH]cc(-n3ccnn3)c2=O)nc1 [IOX4, t-Butyl 6-(5-oxo-4-(1H-1,2,3-triazol-1-yl)-2,5-dihydro-1H-pyrazol-1-yl)nicotinate] | 49 | 73 | – | > 20 | > 20 | 0.0016
3 | O=C(O)c1ccc(-n2[nH]cc(-n3ccnn3)c2=O)nc1 [compound 1, 6-(5-oxo-4-(1H-1,2,3-triazol-1-yl)-2,5-dihydro-1H-pyrazol-1-yl)pyridine-3-carbocylic acid hydrochloride] | 37 | > 50 | – | > 20 | > 20 | 0.0048

Source: publication PMC4492579, “Potent and Selective Triazole-Based Inhibitors of the Hypoxia-Inducible Factor Prolyl-Hydroxylases with Activity in the Murine Brain” (PLoS ONE, 2015)
